Our source for the K inact, Ki and kinact values is ChEMBL document CHEMBL1123301, “Structure-activity study of 6-substituted 2-pyranones as inactivators of alpha-chymotrypsin” (J Med Chem, 1986).

The target of test [1] is Chymotrypsinogen A (Bos taurus) (UniProt P00766).
The target is the same in test [2]. This is another data set of the same source.
A short description of test [3]: Binding affinity towards alpha-chymotrypsin from bovine pancreas. More on the design: species or system Bos taurus.
In test [4] the target is Chymotrypsinogen A (Bos taurus) (UniProt P00766). The source holds these as a separate data set.
Test [5] has the same target. The test is described as follows: Binding affinity towards alpha-chymotrypsin from bovine pancreas; The compound was too insoluble to obtain reliable data.

Turning to `O=c1ccc(-c2ccccc2)co1`, the K inact result in test [1] was “No inactivation”.

`CCc1ccc(=O)oc1Cl` registered a K inact in test [2] of 0.00551 min⁻¹. For `O=c1occcc1-c1ccccc1`, in test [3], affinity was put at a Ki of 160 µM. Moreover, the K inact result in test [1] was “No inactivation”. Turning to `O=c1ccc(-c2ccccc2)c(Cl)o1`, the K inact entry in test [1] is “No inactivation”. As for `CCCCc1ccc(=O)oc1Cl`, in test [2], the K inact is 0.00217 min⁻¹. Consider `O=c1oc(Cl)ccc1-c1ccccc1`, for which the K inact result in test [1] was “No inactivation”.

Regarding `O=c1oc(Br)ccc1Cc1ccc2ccccc2c1`, the kinact (commonly the rate constant of inactivation at saturating inhibitor) in test [4] turned out to be 0.0239 min⁻¹. Also, the Ki (as a rule, a dissociation constant, usually derived from enzyme kinetics or from competition with a known ligand) in test [5] is given as “The compound was too insoluble to obtain reliable data”.
